Experimental data as given in US11497701B2, “Multi-functional anti-microbial polymers and compositions containing same” (priority 2015, dated 2022).

Assays:
Aspergillus fumigatus = test: Antifungal susceptibility disc test (rings of inhibition); type: cell-based; conditions: disc on Sabouraud plate, 18-24 hrs at 35° C.; polymers 100 μg per disc, Amphotericin B 20 μg; NI = No Inhibition
Method: (§1) Each polymer was applied to sterile filter paper discs as a solution (15 mg of compound in 3 mL of solvent). Each disc received 20 μL of solution, and was allowed to dry, giving a final concentration of 100 μg of compound per disc. Adapted from Messer et al., (2007), this protocol was used to test novel compounds for antifungal properties against yeasts and fungi. Compounds were tested for antifungal activity against pure cultures of Saccharomyces cerevisiae, Candida albicans supplied by Ward's Natural Science Ltd. and Aspergillus niger and Aspergillus fumigatus supplied by […]. (Inverness Medical, Ottawa, Ontario, Canada). All cultures were maintained on Sabouraud agar. […] The cultures of A. niger and A. fumigatus were transferred, using an inoculation loop, to new Sabouraud agar and grown for 48 hrs. at 27° C., and 35° C. respectively, to cause sporulation. Triplicates of all the plates and broth cultures were made in case of error or contamination. Using a sterile swab, and aseptic techniques, the cell suspension of S. cerevisiae, and C. albicans were transferred to Sabouraud agar plates and spread evenly, ensuring that the entire surface was inoculated. They were then left to dry for 10 minutes. From the plates containing A. niger and A. fumigatus two small circles containing fungal growth of the A Niger or A Fumigatus fungi were cut from the agar plates, and using a glass/PTFE tissue homogenizer, were mixed and homogenized with 5 ml of sterile MilliQ water to create a suspension of fungal spores. Using a sterile swab, and aseptic techniques, the spore inocula of A. niger and A. fumigatus were transferred to Sabouraud agar plates and spread evenly, ensuring that the entire surface was inoculated. They were then left to dry for 10 minutes. Amphotericin B (20 μg) premade discs were used as a control. Three antibiotic discs containing different compounds were place equidistant apart on each Sabouraud plate. Each compound had three replicates per species. Plates containing S. cerevisiae, and C. albicans were incubated for 18-24 hrs at 37° C., A. niger for 48 hrs at room temperature, and A. fumigatus for 18-24 hrs at 35° C. […] If clear rings of inhibition were present, the diameter was measured twice using a caliper. Halos indicated partial inhibition of growth (Hicks et al., 2008).

Aspergillus niger = test: as above; type: cell-based; conditions: disc on Sabouraud plate, 48 hrs at room temperature; polymers 100 μg per disc, Amphotericin B 20 μg; NI = No Inhibition
Method: as §1

Candida albicans = test: as above; type: cell-based; conditions: disc on Sabouraud plate, 18-24 hrs at 37° C.; polymers 100 μg per disc, Amphotericin B 20 μg; NI = No Inhibition
Method: as §1

Saccharomyces cerevisiae = test: as above; type: cell-based; conditions: disc on Sabouraud plate, 18-24 hrs at 37° C.; polymers 100 μg per disc, Amphotericin B 20 μg; NI = No Inhibition
Method: as §1

Escherichia coli = test: Antibacterial susceptibility disc test (rings of inhibition); type: cell-based; set-up: unit not given here; conditions: NI = No Inhibition; for diameter of ring of inhibition, E. coli (Table 5): all 10 μg; for diameter of ring of inhibition, E. coli: disc on Mueller-Hinton plate, 18-24 hrs at 37° C., polymers 100 μg per disc, control discs at given load
Method: (§2) Compounds were tested for antibacterial activity, as described in Ma et al. (2011), against pure cultures of Escherichia coli, Pseudomonas aeruginosa, Bacillus cereus, Proteus mirabilis/hauseri, and Staphylococcus aureus, supplied by Ward's Natural Science Ltd. (St. Catherines, Ontario, Canada). All cultures were maintained on Tryptic Soy agar. These cultures were then transferred using an inoculation loop to 10 mL of Tryptic soy broth, and grown at 37° C. for 24 hours. Triplicates of plate and broth cultures were made in case of error or contamination. Using a sterile swab, and aseptic techniques, the bacterial broth inocula were transferred to Mueller-Hinton plates and spread evenly, ensuring that the entire surface was inoculated. They were then left to dry for 3-5 minutes. The following control discs were used: Penicillin (10 μg), Tetracycline (30 μg), Chloramphenicol (30 μg), and Ampicillin (10 μg). Four antibiotic discs containing different compounds were placed equidistant from each other on a Mueller-Hinton plate. Each compound had three replicates per species. Plates were incubated for 18-24 hrs at 37° C., and then observed for rings of inhibition. If clear rings of inhibition were present, the diameter was measured twice using a caliper. […] Each polymer was applied to sterile filter paper discs as a solution (15 mg of compound in 3 mL of solvent). Each disc received 20 μL of solution, and was allowed to dry, giving a final concentration of 100 μg of compound per disc.

Staphylococcus aureus = test: as above; type: cell-based; conditions: disc on Mueller-Hinton plate, 18-24 hrs at 37° C.; polymers 100 μg per disc, control discs at given load; NI = No Inhibition
Method: as §2

Bacillus cereus = test: as above; type: cell-based; conditions: disc on Mueller-Hinton plate, 18-24 hrs at 37° C.; polymers 100 μg per disc, control discs at given load; NI = No Inhibition
Method: as §2

[1] = tested on: Proteus mirabilis/hauseri; test: as above; type: cell-based; conditions: disc on Mueller-Hinton plate, 18-24 hrs at 37° C.; polymers 100 μg per disc, control discs at given load; NI = No Inhibition
Method: as §2

Pseudomonas aeruginosa = test: as above; type: cell-based; conditions: disc on Mueller-Hinton plate, 18-24 hrs at 37° C.; polymers 100 μg per disc, control discs at given load; NI = No Inhibition
Method: as §2

[2] = Viscosity measurements (Brookfield Synchrolectric viscometer model LVF); type: physicochemical; conditions: 1% weight solution in distilled water, pH 7 and 25° C.
Method: The values in centi-poise (mPa·s, m=milli) were calculated as per the specifications set out by the instrument manufacturer.
The viscosity of the compositions described in Example 5, were also similarly measured, as well as 1% wt. solutions of pure BAC and hp-AETA.

Compound | diameter of ring of inhibition, A. fumigatus (Aspergillus fumigatus) | diameter of ring of inhibition, A. niger (Aspergillus niger) | diameter of ring of inhibition, C. albicans (Candida albicans) | diameter of ring of inhibition, S. cerevisiae (Saccharomyces cerevisiae) | diameter of ring of inhibition, E. coli (Table 5) (Escherichia coli) | diameter of ring of inhibition, E. coli (Escherichia coli) | diameter of ring of inhibition, S. aureus (Staphylococcus aureus) | diameter of ring of inhibition, B. cereus (Bacillus cereus) | diameter of ring of inhibition, P. hauseri [1] | diameter of ring of inhibition, P. aeruginosa (Pseudomonas aeruginosa) | viscosity [2] [mPa·s]
C[C@@H]1[C@H](O)[C@@H](C)/C=C/C=C/C=C/C=C/C=C/C=C/C=C/[C@H](O[C@@H]2O[C@H](C)[C@@H](O)[C@H](N)[C@@H]2O)C[C@@H]2O[C@](O)(C[C@@H](O)C[C@@H](O)[C@H](O)CC[C@@H](O)C[C@@H](O)CC(=O)O[C@H]1C)C[C@H](O)[C@H]2C(=O)O [Amphotericin B] | 12.5 | 15.5 | 13.6 | 8.39 | – | – | – | – | – | – | –
CC1(C)S[C@@H]2[C@H](NC(=O)[C@H](N)c3ccccc3)C(=O)N2[C@H]1C(=O)O [Ampicillin] | – | – | – | – | 15.4 | 15.0 | 40.4 | 13.5 | 11 | 10.2 | –
O=C(N[C@H](CO)[C@H](O)c1ccc([N+](=O)[O-])cc1)C(Cl)Cl [Chloramphenicol] | – | – | – | – | 17.4 | 19.4 | 24.1 | 26.3 | 14.4 | 21.5 | –
CN(C)[C@@H]1C(O)=C(C(N)=O)C(=O)[C@@]2(O)C(O)=C3C(=O)c4c(O)cccc4[C@@](C)(O)[C@H]3C[C@@H]12 [Tetracycline] | – | – | – | – | 25.3 | 20.4 | 24.7 | 20.3 | 13.7 | 9.9 | –
Benzalkonium chloride [BAC] | – | – | – | – | – | – | – | – | – | – | 3.1
Penicillin | – | – | – | – | 19.5 | 19.5 | 43.8 | – | 19 | 7.0 | –
